In brackets after ≈: the same amount, converted by molar mass. Entries after “also recorded” stand apart in the source; their conditions may differ. Square brackets hold non-standard residues; d marks the D form. Peptide text beside a SMILES is read from it. * marks the point of attachment. FITC = O=C1OC2(c3ccc(O)cc3Oc3cc(O)ccc32)c2ccc(NC(=S)*)cc21; Bip = N[C@@H](Cc1ccc(-c2ccccc2)cc1)C(=O)O; Dip = N[C@H](C(=O)O)C(c1ccccc1)c1ccccc1; Ahx = NCCCCCC(=O)O
Key:
[1] = 10^7 CFU/mL of C. albicans in SD broth; settings: C. albicans (ATCC 10231), 301 K, up to 24 h
[2] = 10^7 CFU/mL of C. albicans + 0.5 mM pepstatin A; settings: C. albicans (ATCC 10231), 301 K, up to 24 h
C. albicans [3] = assay: Confocal laser microscopy, localization of FITC peptides; format: cell-based, Candida albicans; settings: 50 μM FITC-conjugated peptide, 10^7 CFU/mL, SD broth, 28 °C, 5 min
Description: Firstly, 10^7 CFU/mL of C. albicans was incubated with 0.25 mM FITC P-113 and 0.25 mM FITC alone (as a negative control) in SD broth at 28 °C for 1, 2, 3, 4, 5, and 6 h. Another experiment was performed to observe the short-term localization of Bip-P-113 and Dip-P-113 peptides. Briefly, log-phase C. albicans cultures were resuspended to a cell density of 10^7 CFU/mL in SD broth and treated for 5 min at 28 °C with 50 μM FITC-conjugated P-113, Bip-P-113, and Dip-P-113. After centrifugation, the cells were washed three times with 20 mM phosphate buffer (pH 7.4) to remove nonbinding peptides and fixed with 4% (w/v) paraformaldehyde in 20 mM phosphate buffer (pH 7.4) at room temperature for 20 min. Following fixation, the cells were centrifuged at 3500× g for 5 min, resuspended in phosphate buffer, and loaded onto a glass slide with a 1.4% solid agarose bed. The images were taken with a confocal laser scanning microscope (LSM 510 META, Carl Zeiss, Jena, Germany) equipped with a 40× C-Apochromat water-immersion objective lens (Carl Zeiss, Jena, Germany).

C. albicans [4] = assay: Scanning electron microscopy, cell morphology; format: cell-based, Candida albicans; settings: 50 μM peptide, 10^7 CFU/mL, SD broth, 28 °C, 5 min
Description: Time-course morphological studies of C. albicans were performed by scanning electron microscopy (SEM). Overnight cultures of C. albicans were sub-cultured and grown in SD broth. Then, 10^7 CFU/mL of C. albicans was treated with 0.25 mM P-113 in SD broth at 28 °C. Samples were collected following 1, 2, 3, 4, 5, and 6 h of incubation. Another experiment was performed to observe the morphological changes caused over in a short time caused by Bip-P-113 and Dip-P-113. Briefly, 10^7 CFU/mL of C. albicans in SD broth was treated for 5 min at 28 °C with 50 μM P-113, Bip-P-113, and Dip-P-113. After harvest, cells were resuspended in fixation solution (2.5% glutaraldehyde in 20 mM phosphate buffer pH 7.4) and then placed on Thermanox substrate-coated cover slips at 4 °C for 12 h. The cover slips were carefully washed three times with 20 mM phosphate buffer (pH 7.4), followed by incubation in post-fixation solution (1% OsO4 in 20 mM phosphate buffer pH 7.4) at room temperature for an hour. After being washed three times with 20 mM phosphate buffer (pH 7.4), the cover slips were air-dried for an hour by dehydration with a graded series of ethanol. Samples were gold-coated and observed under an S-4700 field-emission (FE)-SEM (Hitachi, Ltd., Tokyo, Japan) at an acceleration voltage of 5 kV.

[5] = histidine residues replaced with non-natural amino acids; cited from earlier work
Candida albicans = format: cell-based; settings: 1× MIC, 30 min, SD broth, 28 °C, 5 × 10^4 CFU/mL, normal salt conditions, triplicate
Description: Figure 7 Time killing activity of FITC-labeled P-113 peptide and its FITC-labeled derivatives against Candida albicans. Cells were treated with 1× MIC of (a) P-113 (black circle), FITC-labeled N-terminal truncated P-113 (black square), FITC-labeled C-terminal truncated P-113 (black triangle), and (b) treated with FITC-labeled Bip-P-113 (white square), and FITC-labeled Dip-P-113 (white triangle). Killed cells (%) = (cell number in peptide-free control − cell number in sample)/(cell number in peptide-free control) × 100. Error bars represent the standard errors of the mean.
C. albicans were cultivated onto Sabouraud dextrose agar plates overnight and sub-cultured twice before time killing assays. A total of 5 × 10^4 CFU/mL of C. albicans cells were treated with 1× MIC of FITC-conjugated P-113 peptides and their derivatives in SD broth for 10, 20, 30, 60, and 120 min at 28 °C. After that time, serial dilutions (1:10) of the incubation mixtures were added onto SD agar. The numbers of CFU were counted after 24 h of incubation at 28 °C. The percentage of killed cells was calculated by comparison with the number of cells in a control sample incubated without P-113 peptide. The assays were performed in triplicate.

[6] = system: C. albicans American Type Culture Collection (ATCC) 10,231; format: cell-based, Candida albicans; settings: American Type Culture Collection (ATCC) 10,231, 24 h
Description: C. albicans (ATCC 10231) from the American Type Culture Collection (Manassas, VA, USA) was cultured at 28 °C on SD agar plates.
To determine the minimum inhibitory concentration (MIC) values of the FITC conjugated-P-113 peptides and their derivatives, a broth microdilution assay was used. Overnight-grown cultures of C. albicans in SD broth were sub-cultured for several hours and subsequently diluted to a final concentration of 5 × 10^4 CFU/mL in Mueller Hinton (MH) broth and LYM broth. A total of 100 μL of diluted microbe was transferred into each well of a 96-well plate, into which a 1 μL dilution series of peptides in sterile water (ranging from 50 to 0.78 μg/mL) was previously added. After incubation for 24 h at 28 ℃, the MIC value of P-113 peptides was determined as the lowest concentration at which no change in optical density was observed. The experiment was conducted three times, and average values were reported.

C. albicans [7] = assay: Fluorescence microscopy, localization of FITC truncated peptides; format: cell-based, Candida albicans; settings: 50 μM FITC peptide, 10^7 CFU/mL, SD broth, 28 °C, 30 min
Description: Firstly, 10^7 CFU/mL of C. albicans cells were incubated with 50 µM FITC N-terminal truncated P-113, FITC C-terminal truncated P-113 peptides, and FITC alone for 30 min at 28 °C in SD broth. After incubation, the cells were centrifuged at 3500× g for 5 min and then washed three times with 20 mM phosphate buffer (pH 7.4) to remove unbound peptides. The resulting pellets were resuspended and immobilized on the glass slips with a 1.4% solid agarose bed. Fluorescence images were captured using an inverted fluorescence microscope (ECLIPSE E400, Nikon, Tokyo, Japan) with a camera (AxioCam ICc5, ZEISS, Jena, Germany).

C. albicans [8] = assay: Flow cytometry, fluorescence of cells incubated with FITC peptides; format: cell-based, Candida albicans; settings: 50 μM FITC peptide, 5 × 10^6 CFU/mL, SD broth, 28 °C, 30 min, n = 3
Description: Firstly, 5 × 10^6 CFU/mL of C. albicans cells were incubated with 50 µM FITC P-113, FITC N-terminal truncated P-113, and FITC C-terminal truncated P-113 peptides for 30 min at 28 °C in SD broth. The resuspended cell pellets described above were also used for flow cytometry experiments. Flow cytometric cell sorting was performed (10,000 events/sample) by using flow cytometry (BD Accuri™ C6 Plus Flow Cytomete, BD Biosciences, NJ, USA). The quantitative data were analyzed by Prism software.

Row | Compound | Cellular localization of FITC peptide (C. albicans [3]) | Cell surface morphology (SEM), short exposure (C. albicans [4]) | Degradation in serum [5] | MIC, LYM Control [6] [µg/mL] | MIC, MH Broth [6] [µg/mL] | also measured
1 | AKRHHGYKRKFH |  |  |  |  |  | cleaved bond [1]: Lys10-Phe11, first_seen, 1 h; also recorded: Tyr7-Lys8, 2–3 h; also recorded: Lys8-Arg9; not cleaved [2]: no noticeable changes in ^1H-^15N HSQC chemical shifts in the presence of pepstatin A (24 h)
2 | C[C@H](NC(=O)CCCCCNC(=S)Nc1ccc2c(c1)C(=O)OC21c2ccc(O)cc2Oc2cc(O)ccc21)C(=O)N[C@@H](CCCCN)C(=O)N[C@@H](CCCNC(=N)N)C(=O)N[C@@H](Cc1ccc(-c2ccccc2)cc1)C(=O)N[C@@H](Cc1ccc(-c2ccccc2)cc1)C(=O)NCC(=O)N[C@@H](Cc1ccc(O)cc1)C(=O)N[C@@H](CCCCN)C(=O)N[C@@H](CCCNC(=N)N)C(=O)N[C@@H](CCCCN)C(=O)N[C@@H](Cc1ccccc1)C(=O)N[C@@H](Cc1ccc(-c2ccccc2)cc1)C(N)=O [Bip-P-113] ({FITC-Ahx}-AKR[Bip][Bip]GYKRKF[Bip]-NH2; N-terminus assumed) | accumulated on the surface of cells and did not translocate into the cytoplasm | became rippled and showed deep pore formation | protects |  |  | Reduction in cell viability (Candida albicans): 99%
3 | C[C@H](NC(=O)CCCCCNC(=S)Nc1ccc2c(c1)C(=O)OC21c2ccc(O)cc2Oc2cc(O)ccc21)C(=O)N[C@@H](CCCCN)C(=O)N[C@@H](CCCNC(=N)N)C(=O)N[C@H](C(=O)N[C@H](C(=O)NCC(=O)N[C@@H](Cc1ccc(O)cc1)C(=O)N[C@@H](CCCCN)C(=O)N[C@@H](CCCNC(=N)N)C(=O)N[C@@H](CCCCN)C(=O)N[C@@H](Cc1ccccc1)C(=O)N[C@H](C(N)=O)C(c1ccccc1)c1ccccc1)C(c1ccccc1)c1ccccc1)C(c1ccccc1)c1ccccc1 [Dip-P-113] ({FITC-Ahx}-AKR[Dip][Dip]GYKRKF[Dip]-NH2; N-terminus assumed) | accumulated on the surface of cells and did not translocate into the cytoplasm | became rippled and showed deep pore formation | protects |  |  | 
4 | N=C(N)NCCC[C@H](NC(=O)CCCCCNC(=S)Nc1ccc2c(c1)C(=O)OC21c2ccc(O)cc2Oc2cc(O)ccc21)C(=O)N[C@@H](Cc1c[nH]cn1)C(=O)N[C@@H](Cc1c[nH]cn1)C(=O)NCC(=O)N[C@@H](Cc1ccc(O)cc1)C(=O)N[C@@H](CCCCN)C(=O)N[C@@H](CCCNC(=N)N)C(=O)N[C@@H](CCCCN)C(=O)N[C@@H](Cc1ccccc1)C(=O)N[C@@H](Cc1c[nH]cn1)C(N)=O [N-ter truncated P-113] ({FITC-Ahx}-RHHGYKRKFH-NH2; N-terminus assumed) |  |  |  | 25 (≈ 13.4 µM) | >50 | 
5 | C[C@H](NC(=O)CCCCCNC(=S)Nc1ccc2c(c1)C(=O)OC21c2ccc(O)cc2Oc2cc(O)ccc21)C(=O)N[C@@H](CCCCN)C(=O)N[C@@H](CCCNC(=N)N)C(=O)N[C@@H](Cc1c[nH]cn1)C(=O)N[C@@H](Cc1c[nH]cn1)C(=O)NCC(=O)N[C@@H](Cc1ccc(O)cc1)C(=O)N[C@@H](CCCCN)C(=O)N[C@@H](CCCNC(=N)N)C(=O)N[C@@H](CCCCN)C(N)=O [C-ter truncated P-113] ({FITC-Ahx}-AKRHHGYKRK-NH2; N-terminus assumed) |  |  |  | 50 (≈ 28.1 µM) | >50 | Green fluorescence in cells compared with N-terminal truncated P-113 (C. albicans [7]): less green fluorescence; Fluorescence intensity of cells compared with cells incubated with intact P-113 (C. albicans [8]): dramatic decrease in fluorescence intensity
